Like-named read-outs stand apart in the source and are kept apart here.
Assays:
[1] = biological target: T1, human CB1 F268W mutant receptor (Homo sapiens, UniProt P21554, F268W); assay: biochemical; format: binding; conditions: for loss in affinity relative to wild-type receptor: F268W receptor vs WT
[2] = biological target: T2, human CB1 P269A mutant receptor (Homo sapiens, UniProt P21554, P269A); assay: biochemical; format: binding
[3] = biological target: human CB1 H270A mutant receptor (Homo sapiens, UniProt P21554, H270A); assay: biochemical; format: binding
human CB1 H270A mutant receptor, sequence (P21554 whole entry H270A): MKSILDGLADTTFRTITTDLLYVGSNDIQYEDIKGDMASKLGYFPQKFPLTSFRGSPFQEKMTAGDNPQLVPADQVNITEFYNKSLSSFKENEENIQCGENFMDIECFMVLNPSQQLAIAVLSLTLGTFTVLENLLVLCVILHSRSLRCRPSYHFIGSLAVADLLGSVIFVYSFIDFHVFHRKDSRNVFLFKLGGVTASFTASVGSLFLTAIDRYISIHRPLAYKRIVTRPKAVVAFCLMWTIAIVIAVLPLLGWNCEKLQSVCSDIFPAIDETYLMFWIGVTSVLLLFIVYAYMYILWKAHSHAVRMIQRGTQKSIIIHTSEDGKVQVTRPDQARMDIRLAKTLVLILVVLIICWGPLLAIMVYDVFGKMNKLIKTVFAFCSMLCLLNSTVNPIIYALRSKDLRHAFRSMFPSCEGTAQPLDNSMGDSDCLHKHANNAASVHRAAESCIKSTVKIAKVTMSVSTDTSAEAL

[4] = biological target: T3, human CB1 I271A mutant receptor (Homo sapiens, UniProt P21554, I271A); assay: biochemical; format: binding; conditions: for loss in affinity relative to wild-type receptor: I271A receptor vs WT
T3 sequence (P21554 whole entry I271A): as the sequence (P21554 whole entry H270A) above, with A270H, I271A counted along it

[5] = biological target: T4, human CB1 wild-type (WT) receptor (Homo sapiens, UniProt P21554); assay: Competition binding with [3H]SR141716A, wild-type CB1 membranes
T4 sequence (P21554 whole entry): as the sequence (P21554 whole entry H270A) above, with A270H counted along it

[6] = biological target: T4, human CB1 wild-type (WT) receptor; conditions: cited from earlier work
[7] = biological target: T1, human CB1 F268W mutant receptor; conditions: cited from earlier work
[8] = biological target: T2, human CB1 P269A mutant receptor; conditions: cited from earlier work
[9] = biological target: T3, human CB1 I271A mutant receptor; conditions: cited from earlier work

T2 sequence (P21554 whole entry P269A): as the sequence (P21554 whole entry H270A) above, with P269A, A270H counted along it
T1 sequence (P21554 whole entry F268W): as the sequence (P21554 whole entry H270A) above, with F268W, A270H counted along it

Work on `CCCCCc1ccc(-c2c(C)c(C(=O)NN3CCCCC3)nn2-c2ccc(Cl)cc2Cl)cc1` [O-1302, [I]N[/I]-(piperidin-1-yl)-1-(2,4-dichlorophenyl)-4-methyl-5-(4-pentylphenyl)-1H-pyrazole-3-carboxamide] yielded a Ki [1] of 0.0262 µM, a Ki [2] of 0.0011 µM and a Ki [3] of 0.0026 µM. The Ki [4] was 0.0384 µM.

In the case of `CCCCCc1ccc(-n2nc(C(=O)NN3CCCCC3)c(C)c2-c2ccc(Cl)cc2)cc1` [O-1255], the Ki [1] is reported as 0.31 µM, the “loss in affinity relative to wild-type receptor” value [1] is reported as 4 fold and the Ki [2] is reported as 0.0747 µM. For the same molecule, the Ki [3] was 0.113 µM, the Ki [4] was 0.46 µM and the “loss in affinity relative to wild-type receptor” value [4] was 6 fold.

With `N#Cc1c(Oc2cccc(OS(=O)(=O)CCCC(F)(F)F)c2)cccc1C(F)(F)F` [BAY593074, 3-[2-cyano-3-(trifluoromethyl)phenoxy]phenyl-4,4,4-trifluoro-1-butanesulfonate] the Ki [5] was 0.249 µM, the Ki [1] was 1.86 µM and the Ki [2] was 0.341 µM. For the same molecule, the Ki [3] was 0.412 µM, the Ki [4] was 2.87 µM and the “binding affinity diminished relative to wild-type receptor (up to)” value [4] was “up to 12 fold”.

Work on `CCCCC(C)c1ccc(-c2c(-c3ccc(Cl)cc3Cl)nn(N3CCCCC3)c2C)cc1` (stereo not drawn) [O-1690, N-(N-piperdyl)-3-(2,4-dichlrophenyl)-4-(4′-(1′-methylpentyl)phenyl)-5-methylpyrazole] yielded a Ki [1] of 0.0233 µM, a Ki [2] of 0.00096 µM and a Ki [3] of 0.002 µM. The Ki [4] was 0.0773 µM.

In the case of `CC1=CCC2C(C1)c1c(O)cc(C(C)(C)C)cc1OC2(C)C` (stereo not drawn) [JWH179, 3-(1′,1′-dimethylethyl)-Δ8-tetrahydrocannabinol], the Ki [1] is reported as 1.11 µM, the Ki [2] is reported as 0.798 µM and the Ki [3] is reported as 0.09 µM. The Ki [4] was 0.194 µM.

With `O=C(NN1CCCCC1)c1nn(-c2ccc(Cl)cc2Cl)c2c1CCCc1cc(Cl)ccc1-2` [NESS0327] the Ki [1] was 0.021 µM, the “loss in affinity relative to wild-type receptor” value [1] was 5 fold and the Ki [2] was 0.003 µM. For the same molecule, the Ki [3] was 0.0061 µM and the Ki [4] was 0.0112 µM.

In the case of `CCCCCCC(C)(C)c1cc(O)c2c(c1)OC(C)(C)[C@@H]1CC=C(CO)C[C@@H]21` [HU-210, (−)-11-hydroxydimethylheptyl-Δ8-tetrahydrocannabinol], the Ki [3] is listed as 0.0138 µM, the Ki [6] is listed as 0.0037 µM and the Ki [7] is listed as 1.67 µM. For the same molecule, the Ki [8] was 0.0226 µM and the Ki [9] was 0.31 µM.

With `CC1=CC[C@@H]2[C@@H](C1)c1ccc(CC#CCCCNS(C)(=O)=O)cc1OC2(C)C` [O-2050, (6aR,10aR)-3-(1-methanesulfonylamino-4-hexyn-6-yl)-6a,7, 10,10a-tetrahydro-6,6,9-trimethyl-6H-dibenzo[b,d]pyran] the Ki [5] was 0.0034 µM, the Ki [1] was 0.148 µM and the “loss in affinity relative to wild-type receptor” value [1] was 44 fold. For the same molecule, the Ki [2] was 0.0686 µM, the “reduced affinity relative to wild-type receptor” value ([2]; P269A receptor vs WT) was 20 fold and the Ki [3] was 0.0402 µM. The “reduced affinity relative to wild-type receptor” value ([3]; H270A receptor vs WT) was 12 fold, the Ki [4] was 0.166 µM and the “loss in affinity relative to wild-type receptor” value [4] was 49 fold.

For `CCCCC(C)(C)c1cc(O)c2c(c1)OC(C)(C)C1CC=C(C)CC21` (stereo not drawn) [JWH061, 3-(1′,1′-dimethylpentyl)-Δ;8-tetrahydrocannabinol], the Ki [1] was 3.46 µM, the Ki [2] was 1.73 µM and the Ki [3] was 0.373 µM. For the same molecule, the Ki [4] was 0.773 µM.

With `CS(=O)(=O)N(c1cc(F)cc(F)c1)C1CN(C(c2ccc(Cl)cc2)c2ccc(Cl)cc2)C1` [AVE1625, N-{1-[bis(4-chloro-phenyl)-methyl]azetidin-3-yl}-N-(3,5-difluorophenyl)methanesulfonamide] the Ki [5] was 0.00064 µM, the Ki [1] was 0.0022 µM and the “loss in affinity relative to wild-type receptor” value [1] was 3 fold. For the same molecule, the Ki [2] was 0.00088 µM, the Ki [3] was 0.0012 µM and the Ki [4] was 0.0018 µM. For the same molecule, the “loss in affinity relative to wild-type receptor” value [4] was 3 fold.

Source: paper PMC3003262 (Drug development research, 2010)
